From BindingDB's records for doi:10.1016/s0014-5793(96)01132-5 (Cnrs Upr 9023, 1996)
“And” between values parts separate entries of the source, which are not always exact repeats. Equal values may be shown once. Where a name gives a salt, the structure may show the parent alone.

Target: 5-hydroxytryptamine receptor 4 (Mus musculus, UniProt P97288)
Sequence (P97288 whole entry): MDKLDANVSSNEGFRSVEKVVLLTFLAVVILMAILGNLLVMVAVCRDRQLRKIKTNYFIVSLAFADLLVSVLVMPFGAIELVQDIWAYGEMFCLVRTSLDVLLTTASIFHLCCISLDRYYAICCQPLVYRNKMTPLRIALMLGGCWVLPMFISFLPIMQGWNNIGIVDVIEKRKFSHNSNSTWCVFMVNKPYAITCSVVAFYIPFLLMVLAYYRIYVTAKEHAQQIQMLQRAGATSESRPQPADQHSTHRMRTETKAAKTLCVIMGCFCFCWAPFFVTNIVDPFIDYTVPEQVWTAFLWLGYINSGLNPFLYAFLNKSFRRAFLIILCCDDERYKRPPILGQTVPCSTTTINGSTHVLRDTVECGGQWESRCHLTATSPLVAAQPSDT

SMILES	Ki
Cn1cc(C(=O)OCC2CCN(CCNS(C)(=O)=O)CC2)c2ccccc21 [GR 113808]	0.2 nM
CN1C2CCC1CC(OC(=O)c1c[nH]c3ccccc13)C2 (stereo not given)	87.1 nM
COc1cc(N)c(Cl)cc1C(=O)NC1CCN(CCCOc2ccc(F)cc2)CC1OC (stereo not given) [4-amino-5-chloro-N-(1-(3-(4-fluorophenoxy)propyl)-3-methoxypiperidin-4-yl)-2-methoxybenzamide]	32.4 nM
CC(C)n1c(=O)n(C(=O)NC2C[C@H]3CC[C@@H](C2)N3C)c2ccccc21 (stereo not given in full) [BIMU 8]	40.7 nM
NCCc1c[nH]c2ccc(C(N)=O)cc12 [[3H]-5-carboxamidotryptamine]	> 10000 nM and 9770 nM
CCN(CC)CCNC(=O)c1cc(Cl)c(N)cc1OC [4-amino-5-chloro-N-[2-(diethylamino)ethyl]-2-methoxy-benzamide;hydrochloride]	891 nM
COc1cc(N)c(Cl)cc1C(=O)NC1CCN(CCCC(=O)N2CCC(N(C)C)CC2)CC1OC (stereo not given) [4-Amino-5-chloro-N-(1-{4-[4-(dimethylamino)-1-piperidinyl]-4-oxobutyl}-3-methoxy-4-piperidinyl)-2-methoxybenzamide]	2.88 nM
COc1ccc2[nH]cc(CCN)c2c1 [tryptamine, 5-Methoxy]	229 nM
NCCc1c[nH]c2ccc(O)cc12 [[3H]-5-HT]	56.2 nM
CCN(CC)CCOC(=O)c1cc(Cl)c(N)cc1OC [SDZ-205557]	7.76 nM
CCn1c(=O)n(C(=O)NC2CC3CCC(C2)N3C)c2ccccc21 (stereo not given) [BIMU 1]	28.8 nM
COc1ccc2[nH]c(=O)n(C(=O)OC3CC4CCC(C3)N4C)c2c1 (stereo not given) [DAU 6285]	55 nM
COc1cc(N)c(Cl)cc1C(=O)NC1CN2CCC1CC2 (stereo not given) [ZACOPRIDE,R]	191 nM
COc1[nH]c2ccc(F)cc2c1C(=O)OCC1CCN(CCNS(C)(=O)=O)CC1 [GR-125487]	0.02 nM
COc1cc(N)c(Cl)cc1C(=O)NC1CCN2CCCC1C2 (stereo not given) [NSC_3035240]	132 nM
